Data taken from patent publication EP2241565A1, “Aurora kinase inhibitors compounds” (Universität Leipzig, priority 2009, dated 2010).
Entries after “also recorded” stand apart in the source; their conditions may differ.

Columns and labels:
[1] = test system: HeLa cells; experiment: Flow cytometry (FACS) DNA content / cell cycle profile; format: cell-based, human; details: 24 h; for % of cells 2<n<4 / % of cells 2n / % of cells 4n / % of cells <2n / % of cells >4n: HeLa cells; for effect on DNA content / distribution of cells in the cell cycle stages: ZM1 2 µM, (A) and (C) increasing concentrations
Description: Adherent HeLa cells were routinely passaged and maintained in D-MEM medium supplemented with 10% Fetal Bovine Serum (FBS), 1% Penicillin/Streptomycin and 2 mM L-Glutamine. The cells were cultured at 37 °C; 5% CO2. hTERT-RPE1 cells were grown in DMEM with 10% fetal bovine serum. HeLa cells constitutively expressing green fluorescent protein-conjugated Histone H2B and mRed fluorescent protein-conjugated α-tubulin were maintained in D-MEM medium supplemented with 10% Fetal Bovine Serum (FBS), 1% Penicillin/Streptomycin, 2 mM L-Glutamine and 0.5 µg/mL Puromycin and cultured at 37 °C; 5% CO2.
After treatment, FACS analysis was performed on a BD FACSCanto™ Flow Cytometer (Cat.No. 335860 BD Biosciences) using FACSDiva Software. Cells were trypsinized, washed wish PBS and fixed overnight in EtOH (-20°C). After washing with PBS, cells were stained with a propidium iodide solution (PI; 15 µg/mL)/ RNase A (30 µg/mL) for 30 min at 37 °C. RNase was added to avoid signals caused by the binding of PI to RNA.
We first examined by flow cytometry the cell cycle profiles of HeLa cells incubated in medium containing increasing concentrations of any of (A) or (C) for 24 h.

[2] = test system: FGFR; experiment: RTK-Assay (ELISA, chemiluminescence); format: biochemical
Description: To determine the IC50 of receptor-tyrosine-kinase an assay based on the ELISA-principle using kinases from Biomol (N-terminally fused to GST), POD-coupled antibody from Calbiochem (PY20) and BM chemiluminescence ELISA substrate from Roche was followed.
In short, a white 96 wells microplate was incubated overnight with 100 µl/well of the substrate solution (poly-Glu-Tyr diluted with PBS to 100 µg/ml) at 4 °C. The solution was removed and the plate was washed twice for 2 min with PBS-T. Afterwards the kinase solution (50 µl/well)( KDR (VEGFR2), 5 ng; Flt4 (VEGFR3), 20 ng; EGFR, 5 ng; IGFR, 15 ng; FGFR, 10 ng and Tie2, 20 ng) and the inhibitor solution (25 µl/well) were added to each well. To perform positive and negative control, 5% aqueous DMSO (25 µl/well) were used instead of inhibitor solution. Addition of ATP solution (25 µl/well) started the reaction, whereas 40 mM MnCl2 solution (25 µl/well) was added to the negative control instead of ATP. After incubation under mild shaking conditions for 30 min at rt the plate was washed with PBS-T (3 x 2 min) and subsequently incubated with antibody solution (anti-Phosphotyrosine-antibody (POD-coupled) diluted 1:10.000 in PBS-T + 0,2% (m/v) BSA)(100 µl/well) for 1 h again while shaking. In the end the plate was washed with PBS-T (3x5 min) and provided with the chemiluminescence substrate (50 µl/well). After 3 min the occurring luminescence was measured using a luminometer. […] For determination of IC50 values, the relative luminescence units per second (RLU/s) were blotted against the inhibitor concentrations. In doing so each concentration measurement was done triplicate and at least 5 different inhibitor concentrations were used to determine IC50 value.
This assay is based on the ELISA-principle using kinases from Biomol (N-terminally fused to GST), POD-coupled antibody from Calbiochem (PY20) and BM chemiluminescence ELISA substrate from Roche. […]
For determination of IC50 values, the relative luminescence units per second (RLU/s) were blotted against the inhibitor concentrations. […]

| SMILES | % of cells 2<n<4 ([1]; 20µM) [%] | % of cells 2n ([1]; 20µM) [%] | % of cells 4n ([1]; 20µM) [%] | % of cells <2n ([1]; 20µM) [%] | % of cells >4n ([1]; 20µM) [%] | % of cells 2<n<4 ([1]; 40µM) [%] | % of cells 2n ([1]; 40µM) [%] | % of cells 4n ([1]; 40µM) [%] | % of cells <2n ([1]; 40µM) [%] | % of cells >4n ([1]; 40µM) [%] | % of cells 2<n<4 ([1]; 100µM) [%] | % of cells 2n ([1]; 100µM) [%] | % of cells 4n ([1]; 100µM) [%] | % of cells <2n ([1]; 100µM) [%] | % of cells >4n ([1]; 100µM) [%] | effect on DNA content / distribution of cells in the cell cycle stages [1] | IC50 [2] [µM] |
| --- | --- | --- | --- | --- | --- | --- | --- | --- | --- | --- | --- | --- | --- | --- | --- | --- | --- |
| CC(C)Nc1nc(-c2ccco2)nc2ccc(/C=C/C(C)(C)O)cc12 [Compound (A), (E)-4-(2-(Furan-2-yl)-4-(isopropylamino)quinazolin-6-yl)-2-methylbut-3-en-2-ol] | 17.6 | 58.5 | 19.2 | 4.4 | 0.7 | 17.7 | 58.5 | 19.9 | 3.8 | 3.8 | 15.5 | 48.4 | 20.8 | 13.8 | 2.1 | did not alter the distribution of cells in the different cell cycle stages | > 100 |
| CC(C)Nc1nc(-c2ccco2)nc2ccc(C#CCO)cc12 [Compound (C), 3-(2-(Furan-2-yl)-4-(isoiproipylamino)quinazolin-6-yl)prop-2-yn-l-ol] | 17.5 | 55.2 | 19.0 | 7.6 | 1.3 | 20.0 | 47.2 | 21.2 | 10.5 | 1.8 | 25.2 | 21.4 | 41.8 | 10.0 | 1.5 | increased amount of 4n DNA; also recorded: dose dependent increase in the proportion of cells with more than 2n DNA content | > 100 |
